Results on four compounds are retold here after PMC2978156 (Neuron, 2010).

As usually defined, the IC50 is the concentration needed to halve the response being measured. Read a high IC50 as weaker potency.

What all share (assay type): biochemical
Experiment [1] deals with T1, VGLUT2 (Rattus norvegicus, UniProt Q9JI12).
T1 sequence (Q9JI12 1-582): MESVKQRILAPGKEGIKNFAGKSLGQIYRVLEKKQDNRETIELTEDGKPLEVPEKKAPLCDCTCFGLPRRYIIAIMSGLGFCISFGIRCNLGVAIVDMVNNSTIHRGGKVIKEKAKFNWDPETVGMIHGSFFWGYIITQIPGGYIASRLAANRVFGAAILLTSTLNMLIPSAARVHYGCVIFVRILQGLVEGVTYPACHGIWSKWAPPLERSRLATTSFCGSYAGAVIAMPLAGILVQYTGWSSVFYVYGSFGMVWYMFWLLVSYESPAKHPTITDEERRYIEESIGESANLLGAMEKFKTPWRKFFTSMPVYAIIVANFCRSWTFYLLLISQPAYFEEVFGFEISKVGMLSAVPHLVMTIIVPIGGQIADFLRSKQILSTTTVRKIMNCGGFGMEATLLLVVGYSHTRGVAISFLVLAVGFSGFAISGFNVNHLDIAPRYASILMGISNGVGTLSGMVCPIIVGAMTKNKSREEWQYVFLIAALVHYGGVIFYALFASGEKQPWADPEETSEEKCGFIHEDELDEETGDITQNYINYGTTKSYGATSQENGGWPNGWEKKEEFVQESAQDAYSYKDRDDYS
Description: Val-evoked [3H]L-glutamate uptake by proteoliposomes, […] min. Particulars: 10 mM Cl-, 100 uM L-glutamate, pH 7.0, 27 C.

The target in experiment [2] is T1, VGLUT2. Described as above. Particulars: 10 mM Cl-, pH 7.0, 27 C.
Experiment [3] has as its target T1, VGLUT2. The experiment is described as above.
Experiment [4] deals with T2, VGAT (Rattus norvegicus, UniProt O35458).
T2 sequence (O35458 1-525): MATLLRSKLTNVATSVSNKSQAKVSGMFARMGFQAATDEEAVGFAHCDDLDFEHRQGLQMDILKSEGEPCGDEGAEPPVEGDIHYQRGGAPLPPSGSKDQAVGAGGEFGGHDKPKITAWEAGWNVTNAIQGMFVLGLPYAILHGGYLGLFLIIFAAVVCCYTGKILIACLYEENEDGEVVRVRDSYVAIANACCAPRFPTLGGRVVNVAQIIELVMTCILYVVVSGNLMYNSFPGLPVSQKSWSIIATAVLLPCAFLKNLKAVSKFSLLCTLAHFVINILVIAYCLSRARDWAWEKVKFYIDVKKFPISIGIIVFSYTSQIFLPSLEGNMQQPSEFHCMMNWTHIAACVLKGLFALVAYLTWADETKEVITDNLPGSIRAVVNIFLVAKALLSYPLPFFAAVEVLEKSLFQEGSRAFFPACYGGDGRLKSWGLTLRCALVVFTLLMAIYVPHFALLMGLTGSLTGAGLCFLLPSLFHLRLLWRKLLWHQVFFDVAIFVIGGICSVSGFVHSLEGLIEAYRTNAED
Nature of the experiment: GABA uptake by proteoliposomes.

Experiment [5] concerns the target T3, VNUT (Homo sapiens, UniProt Q9BYT1).
T3 sequence (Q9BYT1 1-436): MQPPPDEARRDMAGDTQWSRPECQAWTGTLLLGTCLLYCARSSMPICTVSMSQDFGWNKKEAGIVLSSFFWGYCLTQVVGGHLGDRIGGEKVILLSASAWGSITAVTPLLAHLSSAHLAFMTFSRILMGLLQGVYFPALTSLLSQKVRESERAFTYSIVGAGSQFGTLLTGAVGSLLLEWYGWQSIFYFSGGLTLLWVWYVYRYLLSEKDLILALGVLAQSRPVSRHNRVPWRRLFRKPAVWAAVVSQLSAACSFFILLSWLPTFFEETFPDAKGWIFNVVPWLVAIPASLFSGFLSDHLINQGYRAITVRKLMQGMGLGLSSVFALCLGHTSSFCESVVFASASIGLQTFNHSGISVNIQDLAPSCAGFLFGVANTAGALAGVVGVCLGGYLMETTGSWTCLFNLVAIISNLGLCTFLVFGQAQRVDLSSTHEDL
Nature of the experiment: Val-evoked […]ATP uptake by proteoliposomes. To be noted: 10 mM Cl-, 0.1 mM ATP, pH 7.0, 27 C; prevented by high Cl-; reversible.

For experiment [6], the target named is VMAT2 (Rattus norvegicus, UniProt Q01827). Nature of the experiment: pH-driven [3H]serotonin uptake by proteoliposomes. Particulars: 10 mM Cl-, 10 uM serotonin, pH 7.0 outside; inactive.
Chain of VMAT2 (Q01827 whole entry): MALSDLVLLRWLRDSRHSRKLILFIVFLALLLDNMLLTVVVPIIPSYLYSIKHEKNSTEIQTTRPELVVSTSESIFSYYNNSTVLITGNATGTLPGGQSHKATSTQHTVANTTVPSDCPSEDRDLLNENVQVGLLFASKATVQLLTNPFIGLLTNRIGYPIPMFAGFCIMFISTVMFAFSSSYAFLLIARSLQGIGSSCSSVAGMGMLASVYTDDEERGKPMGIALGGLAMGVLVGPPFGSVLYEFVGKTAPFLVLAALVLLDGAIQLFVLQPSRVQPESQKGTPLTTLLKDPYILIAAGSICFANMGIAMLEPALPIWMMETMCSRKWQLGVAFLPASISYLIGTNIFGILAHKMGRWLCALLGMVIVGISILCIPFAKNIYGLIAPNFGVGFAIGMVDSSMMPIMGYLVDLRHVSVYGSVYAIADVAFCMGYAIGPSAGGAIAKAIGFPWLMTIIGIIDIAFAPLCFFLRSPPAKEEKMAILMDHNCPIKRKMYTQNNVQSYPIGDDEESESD

Each structure is given as a SMILES string. Some results are limits rather than exact numbers.

Regarding `C[C@@H](O)CC(=O)O` [3-hydroxybutyrate], the dose-dependent inhibition result in experiment [1] was “ketone bodies (acetoacetate and 3-hydroxybutyrate) inhibited glutamate transport”. Take `Cc1cc(-c2ccc(/N=N/c3ccc4c(S(=O)(=O)O)cc(S(=O)(=O)O)c(N)c4c3O)c(C)c2)ccc1/N=N/c1ccc2c(S(=O)(=O)O)cc(S(=O)(=O)O)c(N)c2c1O` [Evans blue]: the “Val-evoked [3H]L-glutamate uptake by proteoliposomes, 1 min” value in experiment [2] is “sensitivity to Evans blue and diisothiocyanostilbene disulfonic acid (DIDS)”.

Take `CC(=O)CC(=O)O` [acetoacetate]: the 50% inhibitory concentration (IC50) in experiment [3] was 200 µM; in experiment [4], over 5000 µM. Besides, the dose-dependent inhibition result in experiment [5] was “uptake of ATP by VNUT was similarly inhibited by acetoacetate”. In experiment [6], the “pH-driven [3H]serotonin uptake by proteoliposomes” value is “partially purified VMAT2 was found to be entirely independent of Cl^− and acetoacetate”. Take `CC(=O)C(=O)O` [pyruvate]: the dose-dependent inhibition result in experiment [1] was “pyruvate, an intermediate in the glycolytic pathway also inhibited glutamate transport”.
